Experimental data taken from PMC5283093 (European journal of medicinal chemistry, 2016).

Key:
HIV-1 integrase (IN) = HIV-1 integrase (IN) (Human immunodeficiency virus type 1 group M subtype B, UniProt P12497); test: HTRF-based LEDGF/p75 independent 3′-processing assay; type: biochemical
HEK293T cells = conditions: without viral infection (Fig. 4B)

O=C(O)c1cc(N(Cc2ccccc2)Cc2ccccc2)ccc1O [Compound 1, 5-(Dibenzylamino)-2-hydroxybenzoic acid]
inhibition of IN 3′processing activity in the absence of LEDGF/p75 (in words) (HIV-1 integrase (IN)): weak inhibitions

O=C(O)c1cc(N(Cc2ccccc2Cl)Cc2ccccc2Cl)ccc1O [Compound 2, 5-[Bis(2-chlorobenzyl)amino]-2-hydroxybenzoic acid]
inhibition of IN 3′processing activity in the absence of LEDGF/p75 (in words) (HIV-1 integrase (IN)): weak inhibitions | cellular toxicity in words (HEK293T cells): significant cellular toxicity

O=C(O)c1cc(N(Cc2ccccc2F)Cc2ccccc2F)ccc1O [Compound 5, 5-[Bis(2-fluorobenzyl)amino]-2-hydroxybenzoic acid]
inhibition of IN 3′processing activity in the absence of LEDGF/p75 (in words) (HIV-1 integrase (IN)): weak inhibitions

O=C(O)c1cc(N(Cc2cccc(F)c2)Cc2cccc(F)c2)ccc1O [Compound 6, 5-[Bis(3-fluorobenzyl)amino]-2-hydroxybenzoic acid]
inhibition of IN 3′processing activity in the absence of LEDGF/p75 (in words) (HIV-1 integrase (IN)): weak inhibitions
